Data as given in ChEMBL document CHEMBL4495565, “Cytopathic SARS-Cov2 screening on VERO-E6 cells in a large repurposing effort” (2020).
Values joined by “and” are separate entries in the source; they are usually repeats but may differ in a detail not shown here. Equal entries are not always repeated. Structures can show the parent of a compound that is named as a salt. Square brackets hold non-standard residues; d marks the D form. Peptide text beside a SMILES is read from it. * marks the point of attachment. dPhe(4-NHCONH2) = NC(=O)Nc1ccc(C[C@@H](N)C(=O)O)cc1; Dihydroorotyl(S) = O=C1C[C@@H](C(=O)*)NC(=O)N1; dPhe(4-Cl) = N[C@H](Cc1ccc(Cl)cc1)C(=O)O; Phe(4-NH2) = Nc1ccc(C[C@H](N)C(=O)O)cc1; d2Nal = N[C@H](Cc1ccc2ccccc2c1)C(=O)O; Lys(iPr) = CC(C)NCCCC[C@H](N)C(=O)O; d3Pal = N[C@H](Cc1cccnc1)C(=O)O

What was measured:
in vitro [1] = details: chlorocebus sabaeus
in vitro [2] = details: chlorocebus sabaeus; remark: listed apart in the source
SARS-CoV-2 = experiment: microbe, parasite or virus in culture; assay type: functional, organism-based, Chlorocebus sabaeus, Vero C1008
[3] = VERO-E6 cells (Vero C1008), uninfected, CC50
[4] = VERO-E6 cells, Selectivity index
[5] = Severe acute respiratory syndrome coronavirus 2, Vero C1008, 48 h

| Compound | CC50 at 48 h (in vitro [1]; [3]) | selectivity ratio (in vitro [2]; [4]) | IC50 (SARS-CoV-2; [5]) | CC50 at 48 h (in vitro [1]; vero c1008, CC50) | selectivity ratio (in vitro [2]; vero c1008, Selectivity index) | IC50 (SARS-CoV-2; vero c1008) |
| --- | --- | --- | --- | --- | --- | --- |
| Nc1ncnc2c1c(-c1cnc3[nH]ccc3c1)nn2C1CCCC1 | 8.95 µM | 0.76 | 11.8 µM | – | – | – |
| Cc1ccc(Nc2ncc3c(n2)N(C)C(=O)N(c2cc(NC(=O)c4cccc(C(F)(F)F)c4)ccc2C)C3)cn1 | 0.61 µM | 0.12 | 5.21 µM | – | – | – |
| CC(C)n1nc(-c2cc3cc(O)ccc3[nH]2)c2c(N)ncnc21 | – | – | > 33 µM | 1.63 µM | 0.05 | – |
| CC(C)(C)C(=O)/C(=C/c1cccc([N+](=O)[O-])c1)n1cncn1 | 5.31 µM | 1.23 | 4.33 µM | – | – | – |
| Cc1[nH]c(/C=C2\C(=O)Nc3cc(-c4ccccc4)ccc32)c(C)c1CCC(=O)O | 0.03 µM | 0.01 | 4.1 µM | – | – | – |
| Nc1nccc2c1ncn2[C@@H]1C=C(CO)[C@@H](O)[C@H]1O | 0.3 µM | 0.14 | 2.07 µM | – | – | – |
| COC(=O)C[C@@](O)(CCC(C)(C)O)C(=O)O[C@@H]1C(OC)=C[C@]23CCCN2CCc2cc4c(cc2[C@@H]13)OCO4 | 1.94 µM | 2.46 | 0.79 µM | – | – | – |
| O=c1cc(N2CCOCC2)oc2c(-c3cccc4c3sc3ccccc34)cccc12 | 0.58 µM | 0.15 | 3.79 µM | – | – | – |
| Cc1nc2cnc3ccc(C#Cc4cccnc4)cc3c2n1-c1ccc(C(C)(C)C#N)cc1 | 0.11 µM | 1 | 0.11 µM | – | – | – |
| CC(C)(C)c1cc(C=C(C#N)C#N)cc(Br)c1O | 10.4 µM | 1.18 | 8.77 µM | – | – | – |
| CC(C)(C)c1ccccc1Oc1ncccc1NC(=O)Nc1ccc(OC(F)(F)F)cc1 | 9.9 µM | 1.41 | 7 µM | – | – | – |
| Cc1[nH]c(/C=C2\C(=O)Nc3ccc(S(=O)(=O)N(C)c4cccc(Cl)c4)cc32)c(C)c1C(=O)N1CCN(C)CC1 | 10.4 µM | 0.96 | 10.9 µM | – | – | – |
| OCCCNc1cc(-c2ccnc(Nc3cccc(Cl)c3)n2)ccn1 | 8.17 µM | 1.03 | 7.9 µM | – | – | – |
| CCS(=O)(=O)c1ccc(CC(=O)Nc2cc(Cl)c(-c3ccccc3OC(F)(F)F)c(Cl)c2)cc1 | 12.1 µM | 0.58 | 21 µM | – | – | – |
| O=C(C1CC1)N1CC[C@@H](Cc2n[nH]c(=O)n2-c2ccc(-c3ccc4occc4c3)cc2)C1 | – | – | 17 µM | > 33 µM | 1.94 | – |
| Clc1ccccc1CNC[C@H]1CC[C@H](CNCc2ccccc2Cl)CC1 | 30.9 µM | 1.36 | 22.7 µM | – | – | – |
| N[C@H]1CC[C@H](N[C@@H]2C[C@H]2c2ccccc2)CC1 | > 33 µM | 1 | > 33 µM | – | – | – |
| CC(C)[C@H]1c2ccc(F)cc2CC[C@@]1(CCN(C)CCCc1nc2ccccc2[nH]1)OC(=O)C1CC1 | 8.13 µM | 0.99 | 8.21 µM | – | – | – |
| COc1ccc(-c2c[nH]c3nccc(-c4ccsc4)c23)c(OC)c1 | 0.82 µM | 0.05 | 15.8 µM | – | – | – |
| Cc1cnc(Nc2ccc(F)cc2Cl)nc1-c1c[nH]c(C(=O)N[C@H](CO)c2cccc(Cl)c2)c1 | 1.92 µM | 0.35 | 5.54 µM | – | – | – |
| CNC(=O)Nc1ccc(-c2nc(N3CC4CCC(C3)O4)c3cnn(C4CCC5(CC4)OCCO5)c3n2)cc1 | 0.18 µM | 0.01 | 21.6 µM | – | – | – |
| COc1ccc(CNc2nc(N(CCO)CCO)nc3c2ncn3C(C)C)cc1 | 6.49 µM | 0.82 | 7.95 µM | – | – | – |
| N#Cc1cc2c(OCC(O)CN3CCN(C(c4ccccc4)c4ccccc4)CC3)cccc2[nH]1 (racemic; form 1) | 12.7 µM | 0.49 | 25.6 µM | – | – | – |
| CCN(CC)Cc1cc(Nc2ccnc3cc(Cl)ccc23)ccc1O [AMODIAQUINE] | 16.8 µM | 4.12 | 4.07 µM | – | – | – |
| COc1ccc(C[C@H]2NC[C@H](O)[C@H]2OC(C)=O)cc1 [ANISOMYCIN] | – | 1.11 | 0.09 µM | 0.1 µM | – | – |
| Cc1c(CN2CCN(C(=O)[C@H](C)O)CC2)sc2c(N3CCOCC3)nc(-c3cnc(N)nc3)nc12 [APITOLISIB] | 0.5 µM | 0.22 | 2.31 µM | – | – | – |
| CC[C@H](CC#N)OC(=O)N[C@@H](C)c1cccc(NC(=O)Nc2ccc(-c3cnco3)c(OC)c2)c1 [AVN-944] | 0.76 µM | 0.67 | 1.14 µM | – | – | – |

| Compound | CC50 at 48 h (in vitro [1]; [3]) | selectivity ratio (in vitro [2]; [4]) | IC50 (SARS-CoV-2; [5]) | CC50 at 48 h (in vitro [1]; vero c1008, CC50) | selectivity ratio (in vitro [2]; vero c1008, Selectivity index) | IC50 (SARS-CoV-2; vero c1008) |
| --- | --- | --- | --- | --- | --- | --- |
| CN1[C@@H]2CC[C@H]1C[C@@H](OC(=O)c1cc(Cl)cc(Cl)c1)C2 [BEMESETRON] | 0.02 µM | – | > 33 µM | – | – | – |
| Cc1cc2c(F)c(Oc3ncnn4cc(OC[C@@H](C)OC(=O)[C@H](C)N)c(C)c34)ccc2[nH]1 [BRIVANIB ALANINATE] | 2.58 µM | 0.4 | 6.5 µM | – | – | – |
| CCCCOCCOc1ccc(-c2ccc3c(c2)/C=C(/C(=O)Nc2ccc([S@@+]([O-])Cc4cncn4CCC)cc2)CCCN3CC(C)C)cc1 [CENICRIVIROC] | 11.7 µM | – | > 33 µM | – | – | – |
| C[C@H]1Cc2c([nH]c3cc(Cl)c(F)cc23)[C@@]2(N1)C(=O)Nc1ccc(Cl)cc12 [CIPARGAMIN] | > 33 µM | – | > 33 µM | – | – | – |
| CC(=O)N[C@H](Cc1ccc2ccccc2c1)C(=O)N[C@H](Cc1ccc(Cl)cc1)C(=O)N[C@H](Cc1cccnc1)C(=O)N[C@@H](CO)C(=O)N[C@@H](Cc1ccc(NC(=O)[C@@H]2CC(=O)NC(=O)N2)cc1)C(=O)N[C@H](Cc1ccc(NC(N)=O)cc1)C(=O)N[C@@H](CC(C)C)C(=O)N[C@@H](CCCCNC(C)C)C(=O)N1CCC[C@H]1C(=O)N[C@H](C)C(N)=O [DEGARELIX] (Ac-[d2Nal][dPhe(4-Cl)][d3Pal]S[Phe(4-NH2)](Dihydroorotyl(S))[dPhe(4-NHCONH2)]L[Lys(iPr)]P[dA]-NH2) | > 33 µM | – | 20.7 µM | – | – | – |
| CC(C)C[C@H](NC(=O)[C@@H](NC(=O)c1cccc(-c2ccccc2)n1)[C@@H](C)O)B(O)O [DELANZOMIB] | 0.46 µM | 0.35 | 1.3 µM | – | – | – |
| CC1=NN(c2ccc(C)c(C)c2)C(=O)/C1=N\Nc1cccc(-c2cccc(C(=O)O)c2)c1O [ELTROMBOPAG] | 3.26 µM | – | > 33 µM | – | – | – |
| Cc1cc(C)c2c(c1)[C@@H](N(Cc1cc(C(F)(F)F)cc(C(F)(F)F)c1)c1nnn(C)n1)CCCN2C[C@H]1CC[C@H](C(=O)O)CC1 [EVACETRAPIB] | > 33 µM | – | > 33 µM | – | – | – |
| CC1=C(/C=C/C(C)=C/C=C/C(C)=C/C(=O)Nc2ccc(O)cc2)C(C)(C)CCC1 [FENRETINIDE] | 10.5 µM | – | > 33 µM | – | – | – |
| Cc1ncc(NC(=O)c2ccc(CN3CCN(C)CC3)c(C(F)(F)F)c2)cc1Nc1nccc(-c2cccnc2)n1 [FLUMATINIB] | > 33 µM | – | > 33 µM | – | – | – |
| O=C1OC2(c3ccc(O)cc3Oc3cc(O)ccc32)c2ccccc21 [FLUORESCEIN] | > 33 µM | – | 0.67 µM | – | – | – |
| COCCNCc1ccc(-c2cc3nccc(Oc4ccc(NC(=S)NC(=O)Cc5ccc(F)cc5)cc4F)c3s2)nc1 [GLESATINIB] | 0.64 µM | 0.62 | 1.04 µM | – | – | – |
| CN1CCN(C2CCN(C(=O)Nc3cc(Oc4ccc(NC(=O)C5(C(=O)Nc6ccc(F)cc6)CC5)c(F)c4)ccn3)CC2)CC1 [GOLVATINIB] | > 33 µM | – | 5.89 µM | – | – | – |
| CC[n+]1c(-c2ccccc2)c2cc(N)ccc2c2ccc(N)cc21 [HOMIDIUM] | 2.04 µM | – | > 33 µM | – | – | – |
| Cc1cc(O)c2c(=O)c3c(O)cc(O)c4c5c(O)cc(O)c6c(=O)c7c(O)cc(C)c8c1c2c(c34)c(c78)c65 [HYPERICIN] | 1.31 µM | 5.24 | 0.25 µM | – | – | – |
| CC(C)C[C@H](NC(=O)CNC(=O)c1cc(Cl)ccc1Cl)B(O)O [IXAZOMIB] | 2.7 µM | – | > 33 µM | – | – | – |
| CN(Cc1cnc2nc(N)nc(N)c2n1)c1ccc(C(=O)N[C@@H](CCC(=O)O)C(=O)O)cc1 [METHOTREXATE] | 0.05 µM | – | 0.05 µM | – | – | – |
| O=C(Nc1ccc([N+](=O)[O-])cc1Cl)c1cc(Cl)ccc1O [NICLOSAMIDE] | – | – | – | > 33 µM | – | 4.1 µM and > 33 µM |
| C=CC(=O)N1CCC(Oc2cc3c(Nc4ccc(Cl)c(Cl)c4F)ncnc3cc2OC)CC1 [POZIOTINIB] | 11.5 µM | – | > 33 µM | – | – | – |
| O=C(c1ccc(OCCN2CCCCC2)cc1)c1c(-c2ccc(O)cc2)sc2cc(O)ccc12 [RALOXIFENE HYDROCHLORIDE] | > 33 µM | – | 15.4 µM | – | – | – |
| COC(=O)c1ccccc1-c1c2ccc(=N)cc-2oc2cc(N)ccc12 [RHODAMINE123] | > 33 µM | – | 0.8 µM | – | – | – |
| C[C@@H](OC[C@@]1(c2ccccc2)CC[C@]2(CCC(=O)N2)CN1)c1cc(C(F)(F)F)cc(C(F)(F)F)c1 [ROLAPITANT] | > 33 µM | – | 19.6 µM | – | – | – |
| CN(C)c1cccc(-c2c3c(=O)n(-c4ccccc4Cl)[nH]c3cc(=O)n2C)c1 [SETANAXIB] | – | – | 11.8 µM | 14.8 µM | 1.26 | – |
| CCCCCCCCCCCCCCOc1ccc(C(=O)O)o1 [TOFA] | > 33 µM | – | 4.04 µM | – | – | – |
| CC(C)(C)c1cc(/C=C(\C#N)C(N)=S)cc(C(C)(C)C)c1O [TYRPHOSTIN AG 879] | > 33 µM | – | > 33 µM | – | – | – |
| C/C=C/C[C@@H](C)C(=O)[C@H]1C(=O)N[C@@H](C(C)C)C(=O)N(C)CC(=O)N(C)[C@@H](CC(C)C)C(=O)N[C@@H](C(C)C)C(=O)N(C)[C@@H](CC(C)C)C(=O)N[C@@H](C)C(=O)N[C@H](C)C(=O)N(C)[C@@H](CC(C)C)C(=O)N(C)[C@@H](CC(C)C)C(=O)N(C)[C@@H](C(C)C)C(=O)N1C [VALSPODAR] | 13.4 µM | – | > 33 µM | – | – | – |
| Cc1c(C(=O)c2cccc3ccccc23)c2cccc3c2n1[C@H](CN1CCOCC1)CO3 [WIN-552122] | 7.06 µM | – | > 33 µM | – | – | – |
